According to patent EP1267623B1, “ACYCLIC MONOTERPENES AS ANTI-SPROUTING AGENTS FOR POTATO TUBERS” (COUNCIL OF SCIENTIFIC & INDUSTRIAL RESEARCH; An Indian …, priority 2000, dated 2001):

Legend:
Format in all cases: in vivo
potato tubers [1] = experiment: Sprout inhibition by dipping in combinations of monoterpenes and other compounds (Example 5); conditions: dipping five hours in aqueous solution with Tween 20, 4-8 mM
Description: Combination of 4-8 mM of each geraniol, citral , citronella and citronellal were tried to determine the best combination. Along with this some other compounds were also tried. The terpenes were applied by dipping the tubers for five hours in aqueous solution of the monoterpenes containing Tween 20 as emulsifying agent. […] Other chemicals were not very effective. Results are given in table 5.Menthol, anisaldehyde, thymol, cinnamom bark oil and thymol has been used earlier (U.S. Patent No. 5,129,951 ) and were effective.

potato tubers [2] = experiment: Sprout inhibition after dipping tubers in 8 mM emulsions of purified compounds (Example 3); conditions: for % eyes sprouted: 8 mM emulsion with Tween 20, dipping 5 hours, then 10 days in jars at ambient temperature; for dormancy of tubers under repeated treatment: emulsion, dipped 5 hours, kept 10 days, then dipped again, after two months
Description: Therefore essential oils were purified by column chromatography and substantially pure compounds were used.
Emulsion of the compounds were prepared of 8 mM concentration of each compound in distilled water containing 2x10-6 % Tween 20 as emulsifier ( control tubers were treated with Tween 20 only). Tubers were treated by dipping each tuber in emulsion for 5 hours, where upon excess liquid was allowed to drain off. Six tubers per treatment were used, with two replicates, and all experiments were repeated once. Tubers were then kept in jars for 10 days at ambient temperature. Tubers were then evaluated as in example 1 & 2 for percentage of sprouted eyes, tuber texture and fungal growth.
Geranyl acetate inhibited sprouting by 42%. […] A&M plants 3 (3) no. 1452 pp 183].
Geraniol, citral, citranellol, citranellal and menthyl acetate were as effective as reported monoterpenes such as benzaldehyde, cinnamaldehyde, eugenol and thymol (U.S.patent no. 5,129,951).

potato tubers [3] = experiment: Sprout inhibition by exposure to vapours of volatilized compounds for seven days (Example 6); conditions: for % eyes sprouted: exposed to vapours (1 ml on filter paper, saturated atmosphere) for seven days, 14 days after removal; for sprouting 18 days after removal from treatment flask: exposed to vapours for seven days
Text: Tubers treated with emulsions of different aromatic compounds remained dormant. Therefore, it was tried to find out the response when tubers were exposed to vapours of volatilized compounds for sprout inhibition. Substantially pure compounds were used as in other examples. Six potatoes were placed in air tight jars containing 9 cm piece of filter paper saturated with one ml of the liquid compound. These amounts were sufficient to produce a saturated atmosphere in the flask. The filter paper was placed in the cap of the flask so that no direct physical contact with the tuber occurred. The tubers were removed after seven days and placed in flasks containing fresh air at ambient temperature. Control tubers were placed in sealed flask lacking any added compound. […] Such short term treatment would greatly lessen costs to the potato industry.

potato tubers [4] = experiment: Sprout inhibition by exposure to fumes of citral from a vaporizer for 1, 2 or 4 days (Example 7); conditions: 14 days after treatment
Description: The tubers were exposed to fumes of citral with the help of a vaporizer at ambient temperature in a close atmosphere for 24 hour, 48 hour and 96 hours. The tubers were then placed in flask containing fresh air and free of any additional volatilized compound. Control tubers were placed in sealed flasks lacking any added compounds. Fourteen days after treatment all tubers examined for percentage of eyes sprouted, tuber texture and fungal growth. 7

potato tubers [5] = experiment: Sprout inhibition by dipping in geraniol and citral at different concentrations (Example 4); conditions: for % eyes sprouted: dipping 5 hours, then 12 days in jars; for sprouting till 20 days after treatment: experiment continued till 20 days after treatment (6 and 8 mM)
Description: Tubers were treated with geraniol and citral the two promising chemicals at different concentrations. The terpenes were applied at 4mM, 6mM and 8m M for 5 hours by dipping the tubers and then the tubers were kept in jars for 12 days.

[6] = 8 mM emulsion, dipping 5 hours, 10 days

Row | SMILES | % eyes sprouted After 3 days (potato tubers [1]) [%] | % eyes sprouted after 7 days (potato tubers [1]) [%] | % eyes sprouted after 14 days (potato tubers [1]) [%] | % eyes sprouted (potato tubers [2]) [%] | effect on tuber sprouting (in words) (potato tubers [2]; [6]) | % eyes sprouted (potato tubers [3]) [%] | sprouting 18 days after removal from treatment flask (potato tubers [3]) | other results
1 | CC=Cc1ccc(OC)cc1 [Anethol] | 0.0 | 0.0 | 51 |  |  |  |  | 
2 | COc1ccc(C=O)cc1 [Anisaldehyde] | 78 | 96 | 96 |  |  |  |  | 
3 | CC12CCC(CC1=O)C2(C)C (stereo not drawn) [Camphor] |  |  |  | 89 | no significant effect |  |  | 
4 | CC(C)=CCCC(C)=CC=O [Citral] |  |  |  | 19 | completely inhibited sprouting | 0.0 | remained unsprouted | % eyes sprouted (potato tubers [4]; exposure to fumes for 1 Day (24 hour)): 18.5%; % eyes sprouted (potato tubers [4]; exposure to fumes for 2 Days (48 hour)): 8.3%; % eyes sprouted (potato tubers [4]; exposure to fumes for 4 Days (96 hours)): 0.0%; dormancy of tubers under repeated treatment (potato tubers [2]): completely dormant; % eyes sprouted (potato tubers [5]; 4mM): 4.1%; % eyes sprouted (potato tubers [5]; 6mM): 0.0%; % eyes sprouted (potato tubers [5]; 8 mM): 0.0%; sprouting till 20 days after treatment (potato tubers [5]): sprouting was not observed
5 | CC(C)=CCC/C(C)=C/CO [Geraniol] |  |  |  | 16 | completely inhibited sprouting | 0.0 | remained unsprouted | dormancy of tubers under repeated treatment (potato tubers [2]): completely dormant; % eyes sprouted (potato tubers [5]; 4mM): 7.5%; % eyes sprouted (potato tubers [5]; 6mM): 0.0%; % eyes sprouted (potato tubers [5]; 8 mM): 0.0%; sprouting till 20 days after treatment (potato tubers [5]): sprouting was not observed
6 | CC(=O)OC/C=C(\C)CCC=C(C)C [Geranyl acetate] |  |  |  | 58 |  |  |  | inhibited sprouting by (potato tubers [2]; [6]): 42%
7 | C=C(C)[C@@H]1CC=C(C)C(=O)C1 [I-carvone] |  |  |  | 100 | no significant effect |  |  | 
8 | C=CC(C)(O)CCC=C(C)C (stereo not drawn) [Linalool] |  |  |  | 100 | no significant effect |  |  | 
9 | CC1CCC(C(C)C)C(O)C1 (stereo not drawn) [Menthol] | 29 | 29 | 29 |  |  |  |  | 
10 | CC(=O)OC1CC(C)CCC1C(C)C (stereo not drawn) [Menthyl acetate] | 0.0 | 0.0 | 0.0 |  |  | 0.0 | remained unsprouted | 
11 | Cc1ccc(C(C)C)c(O)c1 [Thymol] | 79 | 98 | 98 |  |  |  |  | 
12 | CC(C)=CCCC(C)CC=O (stereo not drawn) [citronellal] |  |  |  |  |  | 0.0 | remained unsprouted | 
13 | C=C(C)[C@H]1CC=C(C)C(=O)C1 [d-carvone] |  |  |  | 93 | no significant effect |  |  | 
14 | CC(C)=CCC[C@@H](C)CCO [d-citronellol] |  |  |  | 17 |  | 0.0 | remained unsprouted | 
15 | CC(C)=CCC[C@H](C)CCO [l-citronellol] |  |  |  | 0.0 |  |  |  | 
